Assay results reported in BindingDB's records for doi:10.1021/acs.jmedchem.0c00766 (Istituto Italiano Di Tecnologia, 2020).
pIC50: −log10 of the molar value.

Target: Serine-protein kinase ATM (Homo sapiens, UniProt Q13315)
Test: Inhibition of ATM (unknown origin) assessed as ATM-dependent phosphorylation using GST-p53 ser15 as substrate

Serine-protein kinase ATM, sequence (Q13315 whole entry): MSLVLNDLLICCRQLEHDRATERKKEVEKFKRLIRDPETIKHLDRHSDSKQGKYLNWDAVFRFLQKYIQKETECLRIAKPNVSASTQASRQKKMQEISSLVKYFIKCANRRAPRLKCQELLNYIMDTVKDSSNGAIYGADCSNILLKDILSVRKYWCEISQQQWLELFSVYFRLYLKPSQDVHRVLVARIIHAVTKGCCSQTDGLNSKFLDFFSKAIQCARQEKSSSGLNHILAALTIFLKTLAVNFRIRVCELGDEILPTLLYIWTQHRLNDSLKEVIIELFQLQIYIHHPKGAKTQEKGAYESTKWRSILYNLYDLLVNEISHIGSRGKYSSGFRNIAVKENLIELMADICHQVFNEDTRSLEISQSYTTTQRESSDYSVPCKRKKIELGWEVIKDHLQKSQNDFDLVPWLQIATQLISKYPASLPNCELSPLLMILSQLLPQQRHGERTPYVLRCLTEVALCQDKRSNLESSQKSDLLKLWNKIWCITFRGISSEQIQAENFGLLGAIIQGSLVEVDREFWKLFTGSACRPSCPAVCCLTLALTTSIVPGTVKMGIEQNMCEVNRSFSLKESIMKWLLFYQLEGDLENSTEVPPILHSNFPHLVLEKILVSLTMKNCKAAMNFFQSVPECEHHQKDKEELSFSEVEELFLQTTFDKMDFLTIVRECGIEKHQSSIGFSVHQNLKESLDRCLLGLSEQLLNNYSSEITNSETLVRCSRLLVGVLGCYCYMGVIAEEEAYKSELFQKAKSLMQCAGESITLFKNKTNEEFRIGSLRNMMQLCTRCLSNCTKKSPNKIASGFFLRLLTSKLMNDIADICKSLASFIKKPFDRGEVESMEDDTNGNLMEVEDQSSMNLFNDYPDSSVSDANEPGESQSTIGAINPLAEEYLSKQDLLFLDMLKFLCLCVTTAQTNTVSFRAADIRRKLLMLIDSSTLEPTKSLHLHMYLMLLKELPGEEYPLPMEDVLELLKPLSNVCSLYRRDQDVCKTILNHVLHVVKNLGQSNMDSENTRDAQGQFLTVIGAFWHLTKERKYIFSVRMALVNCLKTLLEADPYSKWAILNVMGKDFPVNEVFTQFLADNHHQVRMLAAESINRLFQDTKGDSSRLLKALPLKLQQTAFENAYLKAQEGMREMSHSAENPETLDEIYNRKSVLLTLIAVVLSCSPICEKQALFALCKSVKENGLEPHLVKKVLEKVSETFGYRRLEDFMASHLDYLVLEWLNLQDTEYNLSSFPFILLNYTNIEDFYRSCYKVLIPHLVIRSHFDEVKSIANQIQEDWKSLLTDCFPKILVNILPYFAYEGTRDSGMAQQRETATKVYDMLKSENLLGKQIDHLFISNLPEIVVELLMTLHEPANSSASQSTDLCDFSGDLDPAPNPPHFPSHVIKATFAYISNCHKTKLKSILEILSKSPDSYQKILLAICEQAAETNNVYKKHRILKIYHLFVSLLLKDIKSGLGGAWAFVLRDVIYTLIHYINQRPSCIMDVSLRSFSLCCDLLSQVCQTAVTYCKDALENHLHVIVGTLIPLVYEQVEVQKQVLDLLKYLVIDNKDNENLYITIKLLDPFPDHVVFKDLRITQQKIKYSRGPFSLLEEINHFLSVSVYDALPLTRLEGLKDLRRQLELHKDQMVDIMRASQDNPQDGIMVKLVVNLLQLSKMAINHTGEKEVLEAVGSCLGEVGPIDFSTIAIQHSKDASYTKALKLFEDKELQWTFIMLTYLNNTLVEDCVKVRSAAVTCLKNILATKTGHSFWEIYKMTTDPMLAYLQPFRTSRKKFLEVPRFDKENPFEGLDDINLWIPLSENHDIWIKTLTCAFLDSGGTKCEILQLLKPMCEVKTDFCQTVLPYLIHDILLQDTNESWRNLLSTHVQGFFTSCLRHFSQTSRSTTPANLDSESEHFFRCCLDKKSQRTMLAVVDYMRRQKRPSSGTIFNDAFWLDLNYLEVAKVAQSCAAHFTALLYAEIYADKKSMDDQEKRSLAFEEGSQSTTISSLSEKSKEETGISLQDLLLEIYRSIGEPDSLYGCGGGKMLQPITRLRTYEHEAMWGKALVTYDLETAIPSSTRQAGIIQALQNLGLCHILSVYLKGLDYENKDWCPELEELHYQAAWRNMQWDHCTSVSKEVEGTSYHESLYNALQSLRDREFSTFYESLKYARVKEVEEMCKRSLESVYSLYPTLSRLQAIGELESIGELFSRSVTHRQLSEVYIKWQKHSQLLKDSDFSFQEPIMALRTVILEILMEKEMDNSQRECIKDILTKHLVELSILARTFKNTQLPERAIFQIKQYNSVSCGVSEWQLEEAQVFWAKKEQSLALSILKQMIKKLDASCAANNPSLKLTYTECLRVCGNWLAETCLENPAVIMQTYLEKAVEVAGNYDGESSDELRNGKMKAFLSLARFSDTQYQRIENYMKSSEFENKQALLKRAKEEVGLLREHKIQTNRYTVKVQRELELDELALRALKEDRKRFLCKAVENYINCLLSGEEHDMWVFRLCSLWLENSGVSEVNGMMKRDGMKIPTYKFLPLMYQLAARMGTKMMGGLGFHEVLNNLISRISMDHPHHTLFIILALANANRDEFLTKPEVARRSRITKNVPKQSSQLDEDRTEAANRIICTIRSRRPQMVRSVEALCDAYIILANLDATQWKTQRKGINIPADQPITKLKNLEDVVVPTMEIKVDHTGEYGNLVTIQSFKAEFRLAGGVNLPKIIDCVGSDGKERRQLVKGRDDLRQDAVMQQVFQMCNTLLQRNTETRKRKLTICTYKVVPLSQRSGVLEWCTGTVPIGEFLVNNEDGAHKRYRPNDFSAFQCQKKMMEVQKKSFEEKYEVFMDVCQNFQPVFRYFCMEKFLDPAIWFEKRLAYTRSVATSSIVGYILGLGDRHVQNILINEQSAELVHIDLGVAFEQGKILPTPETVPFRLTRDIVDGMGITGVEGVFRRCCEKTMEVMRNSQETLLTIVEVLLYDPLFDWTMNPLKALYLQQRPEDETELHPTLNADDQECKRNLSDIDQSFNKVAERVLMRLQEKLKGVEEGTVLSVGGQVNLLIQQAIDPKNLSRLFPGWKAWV

For `CC(C)n1c(=O)n(C)c2cnc3cc(F)c(-c4ccc(OCCCN5CCCCC5)nc4)cc3c21` [Azd-1390], the pIC50 was 10.05.
